From US20210038607A1, “OXADIAZOLYLTHIOPHENE DERIVATIVES USEFUL AS HISTONE DEACETYLASE INHIBITORS” (Karus Therapeutics Limited, priority 2018, published 2021)

Experiments:
[1] = target: T1, Recombinant human HDAC6 (Homo sapiens, UniProt Q9UBN7); assay: HDAC6 biochemical assay, AMC-labeled peptide substrate; details: HDAC6; read-out: HDAC Isoform IC50 (nM) 6
T1 construct: full length, MW=159 kDa; GST (N); host or cells: Sf9 insect cells (baculovirus)
T1 sequence (Q9UBN7 1-1215): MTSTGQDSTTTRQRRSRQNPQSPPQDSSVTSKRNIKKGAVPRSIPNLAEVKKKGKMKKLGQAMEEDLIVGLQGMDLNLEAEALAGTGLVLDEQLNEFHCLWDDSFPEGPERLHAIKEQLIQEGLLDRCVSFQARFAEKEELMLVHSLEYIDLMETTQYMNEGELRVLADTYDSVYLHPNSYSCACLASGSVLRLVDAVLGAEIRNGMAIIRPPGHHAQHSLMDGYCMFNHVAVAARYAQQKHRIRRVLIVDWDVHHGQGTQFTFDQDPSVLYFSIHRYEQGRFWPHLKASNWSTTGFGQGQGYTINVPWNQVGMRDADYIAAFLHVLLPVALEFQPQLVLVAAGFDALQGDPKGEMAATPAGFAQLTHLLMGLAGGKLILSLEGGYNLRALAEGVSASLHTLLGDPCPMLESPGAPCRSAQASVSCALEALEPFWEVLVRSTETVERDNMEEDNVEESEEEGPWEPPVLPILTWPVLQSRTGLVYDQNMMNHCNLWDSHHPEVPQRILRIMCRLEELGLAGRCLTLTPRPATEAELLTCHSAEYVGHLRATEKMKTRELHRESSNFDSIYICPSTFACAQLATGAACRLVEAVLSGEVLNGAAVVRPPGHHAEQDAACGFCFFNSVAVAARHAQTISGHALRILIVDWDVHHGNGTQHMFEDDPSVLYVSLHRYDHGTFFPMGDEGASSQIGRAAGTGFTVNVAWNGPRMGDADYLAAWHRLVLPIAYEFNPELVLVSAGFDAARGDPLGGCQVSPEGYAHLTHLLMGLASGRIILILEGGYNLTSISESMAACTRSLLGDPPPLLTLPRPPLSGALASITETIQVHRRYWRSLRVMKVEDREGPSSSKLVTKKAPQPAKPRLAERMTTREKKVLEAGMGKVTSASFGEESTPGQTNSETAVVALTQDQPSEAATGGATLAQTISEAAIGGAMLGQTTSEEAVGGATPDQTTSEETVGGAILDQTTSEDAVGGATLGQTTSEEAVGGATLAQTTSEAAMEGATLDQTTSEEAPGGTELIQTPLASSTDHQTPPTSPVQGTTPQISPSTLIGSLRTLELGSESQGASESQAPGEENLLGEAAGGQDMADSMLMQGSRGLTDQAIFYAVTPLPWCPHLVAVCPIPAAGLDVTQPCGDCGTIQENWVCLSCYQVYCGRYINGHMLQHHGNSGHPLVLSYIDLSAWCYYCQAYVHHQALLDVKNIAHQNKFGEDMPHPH
Summary of the method: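 Two-step fluorogenic read-out: enzyme deacetylates 50 μM RHKK(Ac)AMC for 1 h at 30° C in pH 8.0 Tris buffer with BSA and 1% DMSO, then developer cleavage gives signal at Ex 360/Em 460. Enzyme: 0.3 ng/ul recombinant full-length human HDAC6, GST-tagged, Sf9-expressed.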

[2] = target: T2, Human HDAC4 (Homo sapiens, UniProt P56524); assay: HDAC4 biochemical assay, class IIa-specific substrate; details: read-out: HDAC Isoform IC50 (nM) 4
T2 construct: amino acids 627-1085 with N-terminal GST tag; GST (N); host or cells: baculovirus expression system
Summary of the method: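 GST-tagged human HDAC4 (aa 627-1085, baculovirus) at 0.004 ng/ul was incubated 30 min at room temperature with 50 μM class IIa-specific substrate BOC-Lys(trifluoroacetyl)-AMC in Tris-HCl pH 8.0 buffer with BSA, 1% DMSO. Developer then released AMC, read at 360/460 nm.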

[3] = target: T3, Human HDAC1 (Homo sapiens, UniProt Q13547); assay: HDAC1 biochemical assay, AMC-labeled peptide substrate; details: read-out: HDAC Isoform IC50 (nM) 1
T3 construct: full length with C-terminal His-tag and C-terminal FLAG-tag; His (C); FLAG (C); host or cells: baculovirus expression system
Summary of the method: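 Baculovirus-expressed full-length human HDAC1 with His and FLAG tags, 0.3 ng/ul, incubated 1 h at 30° C with compound and 50 μM RHKK(Ac)AMC in Tris pH 8.0 buffer with BSA and 1% DMSO. Developer then releases AMC from deacetylated substrate; fluorescence read at 360/460 nm.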

T3 sequence (Q13547 whole entry, canonical isoform): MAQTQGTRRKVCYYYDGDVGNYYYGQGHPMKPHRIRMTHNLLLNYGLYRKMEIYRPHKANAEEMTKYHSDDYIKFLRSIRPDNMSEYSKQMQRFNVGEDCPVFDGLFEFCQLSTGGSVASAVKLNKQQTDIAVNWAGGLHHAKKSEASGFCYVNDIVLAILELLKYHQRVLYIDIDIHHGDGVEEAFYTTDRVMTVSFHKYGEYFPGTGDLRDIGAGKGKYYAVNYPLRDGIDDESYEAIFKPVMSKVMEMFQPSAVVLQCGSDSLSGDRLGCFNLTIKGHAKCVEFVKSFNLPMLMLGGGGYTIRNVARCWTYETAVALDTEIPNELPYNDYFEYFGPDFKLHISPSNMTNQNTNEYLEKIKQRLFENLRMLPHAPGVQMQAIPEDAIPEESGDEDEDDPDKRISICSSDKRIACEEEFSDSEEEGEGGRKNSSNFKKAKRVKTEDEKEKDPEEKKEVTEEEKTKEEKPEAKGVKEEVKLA
T2 sequence (P56524 627-1084 limits assumed): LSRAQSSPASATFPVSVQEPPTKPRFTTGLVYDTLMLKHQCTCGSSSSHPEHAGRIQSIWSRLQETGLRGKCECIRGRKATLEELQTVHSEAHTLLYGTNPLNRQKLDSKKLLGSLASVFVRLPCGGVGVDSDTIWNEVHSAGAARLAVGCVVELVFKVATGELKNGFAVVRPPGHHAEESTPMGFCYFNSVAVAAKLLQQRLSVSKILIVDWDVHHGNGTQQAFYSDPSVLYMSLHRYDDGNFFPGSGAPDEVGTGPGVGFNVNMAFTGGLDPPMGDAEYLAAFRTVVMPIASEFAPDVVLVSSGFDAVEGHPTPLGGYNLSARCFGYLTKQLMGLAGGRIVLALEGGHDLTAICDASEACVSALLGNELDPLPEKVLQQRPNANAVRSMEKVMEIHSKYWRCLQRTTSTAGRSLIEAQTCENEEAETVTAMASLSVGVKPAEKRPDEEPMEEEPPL

Q: What does the source list for `FC(F)c1cnnc(N(Cc2ccc(-c3noc(C(F)(F)F)n3)s2)c2cnccn2)c1` [Example GV, 5-(Difluoromethyl)-N-(pyrazin-2-yl)-N-({5-[5-(trifluoromethyl)-1,2,4-oxadiazol-3-yl]thiophen-2-yl}methyl)pyridazin-3-amine]?
A: IC50 [1]: ≤ 500 nM; IC50 [2]: ≤ 10000 nM; IC50 [3]: > 10000 nM

Q: How did the IC50 [1] turn out when `COc1cnc(N(Cc2ccc(-c3noc(C(F)(F)F)n3)s2)c2cnccn2)cn1` [Example BI, 5-Methoxy-N-(pyrazin-2-yl)-N-({5-[5-(trifluoromethyl)-1,2,4-oxadiazol-3-yl]thiophen-2-yl}methyl)pyrazin-2-amine] was run?
A: Its IC50 is at most 1000 nM.

Q: What about the IC50 [2] of the same compound?
A: Its IC50 is at most 10000 nM.

Q: And the IC50 [3]?
A: Its IC50 is over 10000 nM.

Q: For `FC(F)(F)c1nc(-c2ccc(CN(c3cnccn3)c3cc(N4CCCC4)cnn3)s2)no1` [Example FQ, N-(Pyrazin-2-yl)-5-(pyrrolidin-1-yl)-N-({5-[5-(trifluoromethyl)-1,2,4-oxadiazol-3-yl]thiophen-2-yl}methyl)pyridazin-3-amine], which IC50 [1] is on record?
A: The IC50 was at most 1000 nM.

Q: What about the IC50 [2] of the same compound?
A: The IC50 was at most 10000 nM.

Q: And the IC50 [3]?
A: Its IC50 is over 10000 nM.

Q: For `O=C(c1cnnc(N(Cc2ccc(-c3noc(C(F)(F)F)n3)s2)c2cnccn2)c1)N1C2CCC1COC2` [Example GB, 5-{3-Oxa-8-azabicyclo[3.2.1]octane-8-carbonyl}-N-(pyrazin-2-yl)-N-({5-[5-(trifluoromethyl)-1,2,4-oxadiazol-3-yl]thiophen-2-yl}methyl)pyridazin-3-amine], which IC50 [1] is on record?
A: Its IC50 is at most 500 nM.

Q: What about the IC50 [2] of the same compound?
A: Its IC50 is at most 10000 nM.

Q: What about the IC50 [3] of the same compound?
A: Its IC50 is over 10000 nM.

Q: How did the IC50 [1] turn out when `FC(F)(F)c1cncc(N(Cc2ccc(-c3noc(C(F)(F)F)n3)s2)c2cnccn2)n1` [Example BR, N-(Pyrazin-2-yl)-6-(trifluoromethyl)-N-({5-[5-(trifluoromethyl)-1,2,4-oxadiazol-3-yl]thiophen-2-yl}methyl)pyrazin-2-amine] was run?
A: The IC50 was at most 10000 nM.

Q: And the IC50 [2]?
A: Its IC50 is at most 10000 nM.

Q: And the IC50 [3]?
A: The IC50 was over 10000 nM.

Q: Which IC50 [1] does the source give for `CC(F)(F)c1cnnc(N(Cc2ccc(-c3noc(C(F)(F)F)n3)s2)c2cnccn2)c1` [Example GU, 5-(1,1-Difluoroethyl)-N-(pyrazin-2-yl)-N-({5-[5-(trifluoromethyl)-1,2,4-oxadiazol-3-yl]thiophen-2-yl}methyl)pyridazin-3-amine] here?
A: The IC50 was at most 500 nM.

Q: What about the IC50 [2] of the same compound?
A: Its IC50 is at most 10000 nM.

Q: What about the IC50 [3] of the same compound?
A: The IC50 was over 10000 nM.

Q: Which IC50 [1] does the source give for `O=C(c1cnnc(N(Cc2ccc(-c3noc(C(F)(F)F)n3)s2)c2cnccn2)c1)N1CC(O)(C(F)(F)F)C1` [Example GD, 1-{6-[(Pyrazin-2-yl)({5-[5-(trifluoromethyl)-1,2,4-oxadiazol-3-yl]thiophen-2-yl}methyl)amino]pyridazine-4-carbonyl}-3-(trifluoromethyl)azetidin-3-ol] here?
A: Its IC50 is at most 500 nM.

Q: What about the IC50 [2] of the same compound?
A: The IC50 was at most 10000 nM.

Q: What about the IC50 [3] of the same compound?
A: The IC50 was at most 10000 nM.

Q: With `COC1(C(F)(F)F)CN(C(=O)c2cnnc(N(Cc3ccc(-c4noc(C(F)(F)F)n4)s3)c3cnccn3)c2)C1` [Example GL, 5-[3-Methoxy-3-(trifluoromethyl)azetidine-1-carbonyl]-N-(pyrazin-2-yl)-N-({5-[5-(trifluoromethyl)-1,2,4-oxadiazol-3-yl]thiophen-2-yl}methyl)pyridazin-3-amine] as the compound, how does the IC50 [1] read?
A: The IC50 was at most 500 nM.

Q: And the IC50 [2]?
A: Its IC50 is at most 10000 nM.

Q: What about the IC50 [3] of the same compound?
A: Its IC50 is at most 10000 nM.

Q: Which IC50 [1] does the source give for `O=C(c1cnnc(N(Cc2ccc(-c3noc(C(F)(F)F)n3)s2)c2cnccn2)c1)N1CC2(COC2)C1` [Example FZ, 5-{2-Oxa-6-azaspiro[3.3]heptane-6-carbonyl}-N-(pyrazin-2-yl)-N-({5-[5-(trifluoromethyl)-1,2,4-oxadiazol-3-yl]thiophen-2-yl}methyl)pyridazin-3-amine] here?
A: The IC50 was at most 500 nM.

Q: And the IC50 [2]?
A: The IC50 was at most 10000 nM.

Q: And the IC50 [3]?
A: The IC50 was over 10000 nM.

Q: How did the IC50 [1] turn out when `O=C(c1ccc(N(Cc2ccc(-c3noc(C(F)(F)F)n3)s2)c2cnccn2)nn1)N1CC(O)(C(F)(F)F)C1` [Example FK, 1-{6-[(Pyrazin-2-yl)({5-[5-(trifluoromethyl)-1,2,4-oxadiazol-3-yl]thiophen-2-yl}methyl)amino]pyridazine-3-carbonyl}-3-(trifluoromethyl)azetidin-3-ol] was run?
A: The IC50 was at most 500 nM.

Q: What about the IC50 [2] of the same compound?
A: The IC50 was at most 500 nM.

Q: And the IC50 [3]?
A: The IC50 was over 10000 nM.

Q: With `O=C(O)c1cnnc(N(Cc2ccc(-c3noc(C(F)(F)F)n3)s2)c2cnccn2)c1` [Example DW, 6-[(Pyrazin-2-yl)({5-[5-(trifluoromethyl)-1,2,4-oxadiazol-3-yl]thiophen-2-yl}methyl)amino]pyridazine-4-carboxylic acid] as the compound, how does the IC50 [1] read?
A: Its IC50 is at most 500 nM.

Q: What about the IC50 [2] of the same compound?
A: Its IC50 is at most 10000 nM.

Q: And the IC50 [3]?
A: Its IC50 is over 10000 nM.

Q: How did the IC50 [1] turn out when `O=C(c1ccc(N(Cc2ccc(-c3noc(C(F)(F)F)n3)s2)c2cnccn2)nn1)N1CCC2(COC2)C1` [Example FJ, 6-{2-Oxa-6-azaspiro[3.4]octane-6-carbonyl}-N-(pyrazin-2-yl)-N-({5-[5-(trifluoromethyl)-1,2,4-oxadiazol-3-yl]thiophen-2-yl}methyl)pyridazin-3-amine] was run?
A: Its IC50 is at most 500 nM.

Q: And the IC50 [2]?
A: Its IC50 is at most 500 nM.

Q: What about the IC50 [3] of the same compound?
A: Its IC50 is at most 10000 nM.

Q: For `CN(C(=O)c1cnnc(N(Cc2ccc(-c3noc(C(F)(F)F)n3)s2)c2cnccn2)c1)S(C)(=O)=O` [Example GE, N-Methanesulfonyl-N-methyl-6-[(pyrazin-2-yl)({5-[5-(trifluoromethyl)-1,2,4-oxadiazol-3-yl]thiophen-2-yl}methyl)amino]pyridazine-4-carboxamide], which IC50 [1] is on record?
A: Its IC50 is at most 500 nM.

Q: And the IC50 [2]?
A: The IC50 was at most 10000 nM.

Q: What about the IC50 [3] of the same compound?
A: The IC50 was over 10000 nM.

Q: Which results are given for `O=C(c1cnnc(N(Cc2ccc(-c3noc(C(F)(F)F)n3)s2)c2cnccn2)c1)N1CCC12COC2` [Example GF, 5-{6-Oxa-1-azaspiro[3.3]heptane-1-carbonyl}-N-(pyrazin-2-yl)-N-({5-[5-(trifluoromethyl)-1,2,4-oxadiazol-3-yl]thiophen-2-yl}methyl)pyridazin-3-amine]?
A: IC50 [1]: ≤ 500 nM; IC50 [2]: ≤ 1000 nM; IC50 [3]: > 10000 nM

Q: For `Fc1ccnc(N(Cc2ccc(-c3noc(C(F)(F)F)n3)s2)c2cnccn2)c1` [Example AG, N-(4-Fluoropyridin-2-yl)-N-({5-[5-(trifluoromethyl)-1,2,4-oxadiazol-3-yl]thiophen-2-yl}methyl)pyrazin-2-amine], which IC50 [1] is on record?
A: The IC50 was at most 500 nM.

Q: And the IC50 [2]?
A: Its IC50 is at most 10000 nM.

Q: What about the IC50 [3] of the same compound?
A: The IC50 was over 10000 nM.

Q: Which IC50 [1] does the source give for `O=C(O)c1ccc(N(Cc2sc(-c3noc(C(F)(F)F)n3)cc2F)c2cnccn2)nn1` [Example EZ, 6-[({3-Fluoro-5-[5-(trifluoromethyl)-1,2,4-oxadiazol-3-yl]thiophen-2-yl}methyl)(pyrazin-2-yl)amino]pyridazine-3-carboxylic acid] here?
A: Its IC50 is at most 10000 nM.

Q: What about the IC50 [2] of the same compound?
A: The IC50 was at most 10000 nM.

Q: And the IC50 [3]?
A: Its IC50 is over 10000 nM.

Q: Which results are given for `CC1(c2cnnc(N(Cc3ccc(-c4noc(C(F)(F)F)n4)s3)c3cnccn3)c2)COC1` [Example GT, 5-(3-Methyloxetan-3-yl)-N-(pyrazin-2-yl)-N-({5-[5-(trifluoromethyl)-1,2,4-oxadiazol-3-yl]thiophen-2-yl}methyl)pyridazin-3-amine]?
A: IC50 [1]: ≤ 500 nM; IC50 [2]: ≤ 10000 nM; IC50 [3]: > 10000 nM

Q: What does the source list for `NC(=O)c1cnnc(N(Cc2ccc(-c3noc(C(F)(F)F)n3)s2)c2cnccn2)c1` [Example DX, 6-[(Pyrazin-2-yl)({5-[5-(trifluoromethyl)-1,2,4-oxadiazol-3-yl]thiophen-2-yl}methyl)amino]pyridazine-4-carboxamide]?
A: IC50 [1]: ≤ 500 nM; IC50 [2]: ≤ 1000 nM; IC50 [3]: > 10000 nM
